Reference: PubChem BioAssay (NCI)
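Each compound was tested at five concentrations against cells in 96-well plates for 48 hours. At the TGI there is no net growth.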

Legend:
Experiment in all cases: NCI anticancer screen, dose series, 48 h
786-0 renal = test system: 786-0 renal
A498 renal = test system: A498 renal
A549 NSCLC = test system: A549 NSCLC
ACHN renal = test system: ACHN renal
BT-549 breast = test system: BT-549 breast
CAKI-1 renal = test system: CAKI-1 renal
CCRF-CEM leukemia = test system: CCRF-CEM leukemia
COLO 205 colon = test system: COLO 205 colon
DU-145 prostate = test system: DU-145 prostate
EKVX NSCLC = test system: EKVX NSCLC
HCT-116 colon = test system: HCT-116 colon
HCT-15 colon = test system: HCT-15 colon
HL-60(TB) leukemia = test system: HL-60(TB) leukemia
HOP-92 NSCLC = test system: HOP-92 NSCLC
HS 578T breast = test system: HS 578T breast
HT29 colon = test system: HT29 colon
IGROV1 ovarian = test system: IGROV1 ovarian
K-562 leukemia = test system: K-562 leukemia
KM12 colon = test system: KM12 colon
M14 melanoma = test system: M14 melanoma
MALME-3M melanoma = test system: MALME-3M melanoma
MDA-MB-231 breast = test system: MDA-MB-231 breast
MDA-MB-435 = test system: MDA-MB-435
MDA-N = test system: MDA-N
MOLT-4 leukemia = test system: MOLT-4 leukemia
NCI-H226 lung = test system: NCI-H226 lung
NCI-H23 lung = test system: NCI-H23 lung
NCI-H460 lung = test system: NCI-H460 lung
NCI-H522 lung = test system: NCI-H522 lung
NCI/ADR-RES ovarian = test system: NCI/ADR-RES ovarian
OVCAR-4 ovarian = test system: OVCAR-4 ovarian
OVCAR-5 ovarian = test system: OVCAR-5 ovarian
OVCAR-8 ovarian = test system: OVCAR-8 ovarian
PC-3 prostate = test system: PC-3 prostate
RPMI-8226 leukemia = test system: RPMI-8226 leukemia
RXF 393 renal = test system: RXF 393 renal
SF-268 CNS = test system: SF-268 CNS
SF-295 CNS = test system: SF-295 CNS
SF-539 CNS = test system: SF-539 CNS
SK-MEL-2 melanoma = test system: SK-MEL-2 melanoma
SK-MEL-28 melanoma = test system: SK-MEL-28 melanoma
SK-MEL-5 melanoma = test system: SK-MEL-5 melanoma
SK-OV-3 ovarian = test system: SK-OV-3 ovarian
SN12C renal = test system: SN12C renal
SNB-19 CNS = test system: SNB-19 CNS
SNB-75 CNS = test system: SNB-75 CNS
SR leukemia = test system: SR leukemia
SW-620 colon = test system: SW-620 colon
T-47D breast = test system: T-47D breast
TK-10 renal = test system: TK-10 renal
U251 CNS = test system: U251 CNS
UACC-257 melanoma = test system: UACC-257 melanoma
UACC-62 melanoma = test system: UACC-62 melanoma
UO-31 renal = test system: UO-31 renal
HOP-62 NSCLC = test system: HOP-62 NSCLC
LOX IMVI melanoma = test system: LOX IMVI melanoma
MCF7 breast = test system: MCF7 breast
OVCAR-3 ovarian = test system: OVCAR-3 ovarian

Measured: TGI

NCCC1([N+](=O)[O-])C=CN=CC1 (centres undefined)
> 100 µM: 786-0 renal | A498 renal | A549 NSCLC | ACHN renal | BT-549 breast | CAKI-1 renal | CCRF-CEM leukemia | COLO 205 colon | DU-145 prostate | EKVX NSCLC | HCT-116 colon | HCT-15 colon | HL-60(TB) leukemia | HS 578T breast | HT29 colon | IGROV1 ovarian | K-562 leukemia | KM12 colon | M14 melanoma | MALME-3M melanoma | MDA-MB-231 breast | MDA-MB-435 | MDA-N | MOLT-4 leukemia | NCI-H226 lung | NCI-H23 lung | NCI-H460 lung | NCI-H522 lung | NCI/ADR-RES ovarian | OVCAR-4 ovarian | OVCAR-5 ovarian | OVCAR-8 ovarian | PC-3 prostate | RPMI-8226 leukemia | RXF 393 renal | SF-268 CNS | SF-295 CNS | SF-539 CNS | SK-MEL-2 melanoma | SK-MEL-28 melanoma | SK-MEL-5 melanoma | SK-OV-3 ovarian | SN12C renal | SNB-19 CNS | SNB-75 CNS | SR leukemia | SW-620 colon | T-47D breast | TK-10 renal | U251 CNS | UACC-257 melanoma | UACC-62 melanoma | UO-31 renal
26.8 µM: HOP-92 NSCLC

CC1COC(c2cn[nH]c2C(N)=O)C1O (centres undefined)
> 100 µM: 786-0 renal | A498 renal | A549 NSCLC | ACHN renal | BT-549 breast | CAKI-1 renal | CCRF-CEM leukemia | COLO 205 colon | DU-145 prostate | EKVX NSCLC | HCT-116 colon | HCT-15 colon | HL-60(TB) leukemia | HOP-62 NSCLC | HS 578T breast | HT29 colon | IGROV1 ovarian | K-562 leukemia | KM12 colon | LOX IMVI melanoma | M14 melanoma | MCF7 breast | MDA-MB-231 breast | MDA-MB-435 | MDA-N | MOLT-4 leukemia | NCI-H226 lung | NCI-H23 lung | NCI-H460 lung | NCI-H522 lung | NCI/ADR-RES ovarian | OVCAR-3 ovarian | OVCAR-4 ovarian | OVCAR-5 ovarian | OVCAR-8 ovarian | PC-3 prostate | RPMI-8226 leukemia | SF-268 CNS | SF-295 CNS | SF-539 CNS | SK-MEL-2 melanoma | SK-MEL-28 melanoma | SK-MEL-5 melanoma | SK-OV-3 ovarian | SN12C renal | SNB-19 CNS | SNB-75 CNS | SR leukemia | SW-620 colon | T-47D breast | TK-10 renal | U251 CNS | UACC-257 melanoma | UACC-62 melanoma | UO-31 renal

CN(C)C1C(CO)OC(n2cnc3c(N)ncnc32)C1O (centres undefined)
> 100 µM: 786-0 renal | A498 renal | A549 NSCLC | ACHN renal | BT-549 breast | CAKI-1 renal | CCRF-CEM leukemia | COLO 205 colon | DU-145 prostate | EKVX NSCLC | HCT-116 colon | HCT-15 colon | HL-60(TB) leukemia | HOP-62 NSCLC | HS 578T breast | HT29 colon | IGROV1 ovarian | K-562 leukemia | KM12 colon | LOX IMVI melanoma | M14 melanoma | MCF7 breast | MDA-MB-231 breast | MDA-MB-435 | MDA-N | MOLT-4 leukemia | NCI-H226 lung | NCI-H23 lung | NCI-H460 lung | NCI-H522 lung | NCI/ADR-RES ovarian | OVCAR-3 ovarian | OVCAR-4 ovarian | OVCAR-5 ovarian | OVCAR-8 ovarian | PC-3 prostate | RPMI-8226 leukemia | SF-268 CNS | SF-295 CNS | SF-539 CNS | SK-MEL-2 melanoma | SK-MEL-28 melanoma | SK-MEL-5 melanoma | SK-OV-3 ovarian | SN12C renal | SNB-19 CNS | SNB-75 CNS | SR leukemia | SW-620 colon | T-47D breast | TK-10 renal | U251 CNS | UACC-257 melanoma | UACC-62 melanoma | UO-31 renal
